From PubChem BioAssay AID687000 (Broad Institute, 2013) come the findings set out here.

“And” between values parts separate entries of the source, which are not always exact repeats. Identical values can stand only once. The source made the active and inactive calls.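 The calls were made as follows: active = fitted dose curve reaches 40% lysis signal rise at or below the highest valid concentration tested for that sample; inconclusive = flat fit between 30% and 70%, or poor curve fit; inactive = signal falls, stays flat within 30%, or no crossing.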

For this test, the system named is C. neoformans lysis, adenylate kinase release luminescence, 4 h. Description: inducers of Cryptococcus neoformans cell lysis, dose response, AK release luminescence, cherry-picks (AID 687000).
With `CCCOc1ccc(CNC(=S)NCc2ccc(OC(C)C)cc2)cc1`, the AC40 is 14.3 µM. To `COc1cc(OC)c(N(C)C(=O)c2cn(C)c(=O)c3cc(OC)c(OC)cc23)cc1Cl` belongs > 15 µM (inactive); to `O=C(CN(c1ccc(F)cc1)S(=O)(=O)c1ccccc1)N1CCOCC1`, > 15 µM (inactive); to `COCC(=O)NC[C@H]1N[C@H](CO)[C@H]1c1ccc(C2=CCCC2)cc1`, > 15 µM (inactive).

In the case of `COCC(=O)Nc1ccc2c(c1)C(=O)N(C)C[C@H](OC)[C@@H](C)CN(C(=O)c1ccccc1)[C@@H](C)CO2`, the AC40 is > 15 µM (inactive). Next, `CCCCN1C(=S)NC[C@@H]1Cc1ccccc1`: 5.11 µM; `C[C@H](CO)N1C[C@H](C)[C@@H](CN(C)C(=O)c2ccncc2)OCCCC[C@H](C)Oc2ccc(NC(=O)Cc3ccccc3)cc2C1=O`: > 15 µM (inactive). `CO[C@@H]1CN(C)C(=O)c2ccc(NC(C)=O)cc2OC[C@@H](C)N(C(=O)Cc2cccnc2)C[C@H]1C`: the AC40 was > 13.5 µM (inactive). As to `CCNC(=O)C[C@H]1CC[C@H](NC(=O)NC2CCCCC2)[C@@H](CO)O1`, the AC40 was > 15 µM (inactive).

Consider `COc1ccc(CN(C)C[C@H]2Oc3ccc(NC(=O)Nc4ccc(F)cc4)cc3CC(=O)N([C@@H](C)CO)C[C@@H]2C)cc1`, for which the AC40 was > 16 µM (inactive). Next, `C[C@@H]1CN([C@H](C)CO)S(=O)(=O)c2ccc(C#C[C@@H](C)O)cc2O[C@@H]1CN(C)Cc1ccncc1`: > 15 µM (inactive). To `COc1ccc(CNC(=S)NCc2ccc(OC(C)C)cc2)cc1` belongs 8.39 µM; to `Cc1ccccc1NC(=O)C(=O)NCCCN1CCCC1=O`, > 15 µM (inactive); to `Cc1cc(C(=O)NC(=S)Nc2ccccc2N2CCOCC2)ccc1[N+](=O)[O-]`, 4.95 µM.

`COc1ccccc1NC(=S)NCc1ccc(Cl)cc1`: the AC40 is 2.19 µM. Next, `Cc1noc(C)c1S(=O)(=O)Nc1ccc2c(c1)C(=O)N([C@@H](C)CO)C[C@@H](C)[C@@H](CN(C)Cc1ccccc1)OCCCC[C@H](C)O2`: > 15 µM (inactive); `COC(=O)C1=C(C)N(Cc2ccc(Cl)cc2)C(=S)NC1c1ccccc1` (stereo not drawn): 2.53 µM; `CCCC(=O)Nc1ccc2c(c1)C(=O)N(C)C[C@H](OC)[C@@H](C)CN(C(=O)c1cccnc1)[C@H](C)CO2`: 13.7 µM. Next, `COC(=O)C1=C(C)N(Cc2ccccc2)C(=S)NC1c1ccc(Br)cc1` (stereo not drawn): 2.58 µM; `COc1cccc(-c2ccc3c(c2)[C@H]2[C@H](CCN2C(=O)Cc2ccncc2)[C@H](CO)N3C)c1`: > 15 µM (inactive). To `CC(C)c1ccccc1NC(=S)NN(Cc1ccccc1)c1ccccc1` belongs > 15 µM (inactive); to `COC(=O)C1=C(C)N(Cc2ccc(F)cc2)C(=S)NC1c1ccc(Cl)cc1` (stereo not drawn), > 15 µM (inactive). As to `COC(=O)C1=C(C)N(Cc2ccccc2)C(=S)NC1c1ccc(Cl)cc1` (stereo not drawn), the AC40 is 2.45 µM. To `C[C@H](CO)N1C[C@H](C)[C@@H](CN(C)Cc2ccc(-c3ccccc3)cc2)Oc2ccc(NC(=O)Nc3ccc(C(F)(F)F)cc3)cc2C1=O` belongs > 15 µM (inactive). As to `CC[C@H](C)[C@@H]1NC(=O)CNC(=O)c2csc(n2)[C@H](C(C)(C)O)OC(=O)C(C)(C)[C@H](CCCC(C)(Cl)Cl)OC(=O)c2csc1n2`, the AC40 is 2.66 µM. Next, `C[C@@H]1CN([C@H](C)CO)S(=O)(=O)c2ccc(C#CC3CC3)cc2O[C@H]1CN(C)CC1CCOCC1`: > 15 µM (inactive). To `COc1ccc(C(=O)NC(=S)Nc2cccc(Cl)c2N2CCOCC2)cc1[N+](=O)[O-]` belongs > 15 µM (inactive); to `O=C(NCCc1ccccc1)[C@@H]1[C@@H](CO)[C@@H]2Cn3c(cccc3=O)[C@H]1N2C(=O)C1CCC1`, > 7.5 µM (inactive); to `C[C@H]1CN([C@@H](C)CO)C(=O)c2cccc(NS(=O)(=O)c3ccc(Cl)cc3)c2O[C@@H]1CN(C)CC1CC1`, 3.75 µM. Next, `O=C(NC1CCCCC1)N[C@H]1C=C[C@@H](CC(=O)N2CCOCC2)O[C@@H]1CO`: > 15 µM (inactive). Consider `COC(=O)C1=C(C)N(Cc2ccc(Br)cc2)C(=S)NC1c1ccc(OC)cc1` (stereo not drawn), for which the AC40 was 1.93 µM and 1.57 µM. Consider `C[C@H]1CN([C@@H](C)CO)C(=O)Cc2cc(NS(C)(=O)=O)ccc2O[C@@H]1CN(C)Cc1ccc(Cl)c(Cl)c1`, for which the AC40 is > 15 µM (inactive). Next, `COc1ccccc1C#Cc1ccc2c(c1)O[C@H](CN(C)C(C)=O)[C@H](C)CN([C@@H](C)CO)S2(=O)=O`: > 15 µM (inactive); `COC(=O)C1=C(C)N(Cc2ccccc2)C(=O)N[C@H]1c1cccc(F)c1`: > 15 µM (inactive).

Take `CCOC(=O)NC(=S)Nc1ccc(C(C)(C)C)cc1Br`: the AC40 is 3.16 µM. As to `C[C@@H]1CN([C@@H](C)CO)C(=O)c2cc(NC(=O)C3CC3)ccc2O[C@H]1CN(C)CC1CCCCC1`, the AC40 is > 15 µM (inactive). To `COC(=O)C1=C(C)N(Cc2ccccc2)C(=S)NC1c1cccc(OC)c1` (stereo not drawn) belongs > 15 µM (inactive) and > 16 µM (inactive); to `COc1ccccc1CNC(=S)NCc1ccc(Cl)cc1`, 2.03 µM. Next, `C[C@H]1CN([C@@H](C)CO)C(=O)c2cc(NC(=O)Nc3ccc(F)cc3)ccc2O[C@@H]1CN(C)S(C)(=O)=O`: > 15 µM (inactive). For the compound `O=C(Cc1ccccc1)N[C@H]1C=C[C@@H](CC(=O)N2CCOCC2)O[C@@H]1CO`, the AC40 is 4.91 µM. Next, `COC(=O)C1=C(C)N(Cc2ccc(Cl)cc2)C(=S)NC1c1ccc(OC)cc1` (stereo not drawn): 11.8 µM; `O=C(NC(=S)Nc1cccc(F)c1)c1cccc([N+](=O)[O-])c1`: 3.02 µM.

Turning to `COC(=O)C1=C(C)N(Cc2ccc(Cl)cc2)C(=S)NC1c1ccc(Br)cc1` (stereo not drawn), the AC40 is 0.781 µM. To `C[C@@H]1CCCCO[C@@H](CN(C)C(=O)CCCN(C)C)[C@@H](C)CN([C@H](C)CO)C(=O)c2cc(NC(=O)Cc3ccccc3)ccc2O1` belongs 14.8 µM; to `CCCC(=O)Nc1ccc2c(c1)C(=O)N(C)C[C@H](OC)[C@@H](C)CN(C(=O)c1cccnc1)[C@@H](C)CO2`, > 15 µM (inactive); to `CCN(Cc1ccccc1)C(=O)COc1ccccc1`, > 15 µM (inactive). With `COc1ccccc1/C=N/NC(=S)NCc1ccco1`, the AC40 was > 15 µM (inactive). To `C[C@@H]1CN([C@@H](C)CO)C(=O)c2cc(NS(=O)(=O)c3cn(C)cn3)ccc2O[C@@H](C)CCCCO[C@@H]1CN(C)Cc1ccc(C(F)(F)F)cc1` belongs > 15 µM (inactive). Take `COC(=O)C1=C(C)N(Cc2ccc(F)cc2)C(=S)NC1c1ccc(F)cc1` (stereo not drawn): the AC40 was 6.96 µM. Next, `COc1ccc(CNC(=S)NCc2ccc(OC)cc2)cc1`: > 15 µM (inactive); `COc1ccc(C(=O)NC(=S)Nc2ccccc2N2CCCCC2)cc1[N+](=O)[O-]`: 3.29 µM. Next, `Cc1ccc(NC(=O)N2CCCC2C(=O)Nc2c(C)cc(C)cc2C)cc1` (stereo not drawn): > 15 µM (inactive); `O=C(NC(=S)Nc1ccccc1N1CCCC1)c1ccc([N+](=O)[O-])cc1`: 2.09 µM.

In the case of `Cc1ccc(C(=O)NC(=S)Nc2ccc(N3CCOCC3)cc2)cc1`, the AC40 is 11.9 µM. As to `COc1cccc(S(=O)(=O)Nc2ccc3c(c2)[C@H]2C[C@H](CC(=O)N(C)C)O[C@@H](CO)[C@H]2O3)c1`, the AC40 is > 15 µM (inactive).

Consider `Cc1cccc(C)c1NC(=O)CN(C)C(=O)C1CCCCC1`, for which the AC40 is > 15 µM (inactive). For the compound `Fc1ccccc1NC(=S)NN(Cc1ccccc1)c1ccccc1`, the AC40 is 5.17 µM. Take `COC(=O)C1=C(C)N(Cc2ccc(Cl)cc2)C(=S)NC1c1cccc(OC)c1` (stereo not drawn): the AC40 was 3.04 µM. For the compound `Cc1cccc(C)c1NC(=O)C1CCCN1C(=O)NCc1ccccc1` (stereo not drawn), the AC40 was > 15 µM (inactive). Next, `O=C(N[C@H]1CC[C@H](CCn2cc(-c3ccccn3)nn2)O[C@H]1CO)c1ccc(F)cc1`: > 15 µM (inactive). Next, `S=C(NCCCc1ccccc1)Nc1ccccc1`: 2.56 µM; `CC(C)NC(=O)N(C)C[C@H]1OCCCC[C@H](C)Oc2ccc(NC(=O)c3ccccc3)cc2C(=O)N([C@@H](C)CO)C[C@@H]1C`: > 15 µM (inactive); `Cc1c(C(=O)NC(=S)Nc2ccccc2N2CCCC2)cccc1[N+](=O)[O-]`: > 15 µM (inactive). On to `O=C(C1CCOCC1)N1CC[C@@H]2[C@@H](CO)Nc3ccc(Br)cc3[C@@H]21`, for which the AC40 was > 15 µM (inactive).

On to `COc1ccc(N2CCN(C(=O)Cc3cccs3)CC2)cc1`, for which the AC40 was > 15 µM (inactive). Next, `S=C(Nc1cccc(Cl)c1)Nc1ccccc1Oc1ccccc1`: > 15 µM (inactive); `CC(C)C#Cc1ccc([C@@H]2[C@H](CO)N3CCCCN(C(=O)c4ccc5c(c4)OCO5)C[C@@H]23)cc1`: > 15 µM (inactive). Next, `C[C@H](O)C#Cc1ccc2c(c1)O[C@H](CN(C)Cc1ccncc1)[C@H](C)CN([C@H](C)CO)S2(=O)=O`: > 15 µM (inactive).

As for `CCOC(=O)NC(=S)Nc1ccc(C(C)(C)C)cc1`, the AC40 was 1.21 µM. Take `C[C@H]1CN([C@@H](C)CO)C(=O)c2ccccc2-c2ccccc2CO[C@H]1CN(C)S(=O)(=O)c1cccc(C#N)c1`: the AC40 is > 15 µM (inactive). To `C[C@@H]1CCCCO[C@@H](CN(C)C(=O)Nc2cccc3ccccc23)[C@@H](C)CN([C@H](C)CO)C(=O)c2cc(NS(=O)(=O)c3ccccc3)ccc2O1` belongs 14.2 µM; to `Cc1noc(C)c1S(=O)(=O)Nc1ccc2c(c1)CC(=O)N([C@H](C)CO)C[C@H](C)[C@@H](CN(C)S(=O)(=O)c1cn(C)cn1)O2`, > 15 µM (inactive). Next, `COC(=O)C1=C(C)N(Cc2ccc(Cl)cc2)C(=S)NC1c1ccc(F)cc1` (stereo not drawn): 2.23 µM and 3.73 µM; `COc1ccccc1NC(=S)NCc1ccccc1Cl`: 7.43 µM. To `O=C(NC(=S)NCC1COc2ccccc2O1)c1ccc(Cl)cc1` (stereo not drawn) belongs 3.44 µM; to `C[C@H]1CN([C@@H](C)CO)C(=O)c2cc(-c3ccc(F)cc3)cnc2O[C@@H]1CN(C)CC1CCCCC1`, > 15 µM (inactive). Consider `O=C(COC(=O)CCC1CCCC1)Nc1nc2c(F)c(F)c(F)cc2s1`, for which the AC40 is > 15 µM (inactive).

Take `CCc1ccc(C(C)NC(=S)NCc2ccc(F)cc2)cc1` (stereo not drawn): the AC40 was 0.511 µM.
